Assay results as given in patent US6753348B2, “BTK inhibitors and methods for their identification and use” (Parker Hughes Institute, priority 1998, dated 2004).

Tested on: fetal liver derived human mast cells
Experiment: IgE/anti-IgE stimulated leukotriene C4 release, fetal liver derived human mast cells
Type: cell-based
Details: 100 μM, 30 min before anti-IgE challenge
Method: FIG. 27: Effect of LFM and LFM-A8 on IgE receptor/Fc epsilon RI-mediated human mast cell leukotriene C4 release. IgE sensitized fetal liver derived human mast cells were stimulated by challenging with anti-IgE. To study the effect of the test compounds, mast cells were incubated with vehicle or 100 μM LFM or LFM-A8 prior to challenge with anti-IgE. Leukotriene C4 levels were measured in cell-free supernatants by ELISA. Vehicle treated 10^6 mast cells released 12.5±2.2 ng leukotriene C4. The results are expressed as percent of vehicle-treated controls (N=4). The data points represent the mean±SEM values. *P<0.05 compared to vehicle-treated control, as determined by Student's t test.
Mast Cell Cultures. RBL-2H3 mast cells were a gift from Dr. Reuben P. Siraganian (Laboratory of Microbiology and Immunology, National Institute of Dental Research, National Institute of Health). […]
We next sought to determine the effect of LFM-A8 on IgE/FcεRI-mediated human mast cell leukotriene C4 release and compare its potency with that of LFM. […] The Fc[…] receptors of fetal liver-derived human mast cells were crosslinked with anti-IgE and the resulting mast cell leukotriene C4 release was quantitated by ELISA (Malaviya, R. and Abraham, S. N., (1995) Methods Enzymol, 253, 27-43).

SMILES: CC(O)=C(C#N)C(=O)Nc1cccc(C(F)(F)F)c1 [LFM-A8, α-Cyano-β-hydroxy-β-methyl-N-[3-(trifluoromethyl)phenyl]-propenamide]
- leukotriene C4 release from IgE/anti-IgE-stimulated human mast cells: significantly inhibited
